Patent US20050054696A1, “Indole compounds and medicinal use thereof” (priority 2001, published 2005)

Target: T1, recombinant human liver glycogen phosphorylase (HLGPa) (Homo sapiens, UniProt P06737)
T1 construct: made in house; host or cells: Sf9 insect cells (unpurified cell lysate used as enzyme solution)
T1 sequence (P06737 1-847): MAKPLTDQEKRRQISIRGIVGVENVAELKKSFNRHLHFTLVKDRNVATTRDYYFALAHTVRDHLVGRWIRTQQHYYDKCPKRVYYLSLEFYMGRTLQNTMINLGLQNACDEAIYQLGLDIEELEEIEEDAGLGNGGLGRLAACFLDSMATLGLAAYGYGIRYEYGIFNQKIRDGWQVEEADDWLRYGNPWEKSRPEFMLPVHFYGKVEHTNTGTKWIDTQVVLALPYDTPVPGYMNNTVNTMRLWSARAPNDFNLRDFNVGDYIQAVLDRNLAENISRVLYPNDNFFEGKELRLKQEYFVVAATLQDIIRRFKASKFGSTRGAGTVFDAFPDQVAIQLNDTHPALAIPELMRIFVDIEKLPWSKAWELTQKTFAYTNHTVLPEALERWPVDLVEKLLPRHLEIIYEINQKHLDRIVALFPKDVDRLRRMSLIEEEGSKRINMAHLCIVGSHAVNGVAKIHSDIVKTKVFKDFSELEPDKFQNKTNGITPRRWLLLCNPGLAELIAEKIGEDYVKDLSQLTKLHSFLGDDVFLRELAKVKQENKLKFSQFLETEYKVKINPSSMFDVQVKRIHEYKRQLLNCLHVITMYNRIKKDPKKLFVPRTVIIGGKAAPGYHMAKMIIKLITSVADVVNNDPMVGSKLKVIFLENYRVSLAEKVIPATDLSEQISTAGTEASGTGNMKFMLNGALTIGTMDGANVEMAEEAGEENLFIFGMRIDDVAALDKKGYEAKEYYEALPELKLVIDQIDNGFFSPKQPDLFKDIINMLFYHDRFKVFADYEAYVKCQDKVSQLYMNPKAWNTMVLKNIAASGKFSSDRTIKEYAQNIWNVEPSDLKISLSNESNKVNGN
Experiment: Measurement of liver glycogen phosphorylase activity (enzyme inhibitory activity against HLGPa)
Assay type: biochemical
Settings: Sf9 cell lysate expressing recombinant enzyme; reverse reaction (glycogen synthesis from G1-P), phosphate by malachite green, 60 min room temperature
Protocol: Measurement Method of Liver Glycogen Phosphorylase Activity
The measurement of the glycogen phosphorylase activity was performed by measuring the concentration of phosphoric acic produced by a reverse reaction, that is, a reaction wherein the glycogen phosphorylase synthesizes glycogen from G1-P. A cell lysate of Sf9 cells that forcibly expressed recombinant human liver glycogen phosphorylase was diluted to a protein amount of 80 μg/mL with 1 mM imidazole-hydrochloric acid buffer (pH 7.0, containing 0.2 mM PMSF, 250 mM NaCl, 0.025% BSA) and the dilute cell lysate was used as an enzyme solution of human liver glycogen phosphorylase. As a substrate solution, 25 mM Tris-HCl buffer (pH 7.2, containing 250 mM KCl, 6.25 mM MgCl2, 6.25 mM EGTA, 1.25 mM glucose-1-phosphate, 2.5 mg/ml glycogen, 7.5 mM glucose) was used. The test drug was dissolved in 0.5% dimethyl sulfoxide (DMSO). To a mixture of the test drug (10 μl) and the substrate solution (20 μl) was added an enzyme solution (20 μl) to start the enzyme reaction. As a control, 0.5% DMSO was added instead of the test drug. One free of addition of enzyme was used as a blank. The mixture was reacted at room temperature for 60 min, and a malachite green solution (50 μl) was added. The mixture was further reacted at room temperature for 20 min and absorbance at 650 nm was measured. An enzyme solution was added to the blank simultaneously with the malachite green solution and the measurement was done in the same manner. The percent inhibition (%) of the test drug was calculated from ((value of control−value of the test drug)/(value of control−value of blank))×100 (%).

Row | Structure (SMILES) | IC50
1 | CN(C)c1ccccc1C(=O)NNC(=O)c1cc2cc(Cl)ccc2[nH]1 [Example 1-51, 2-(dimethylamino)benzoic acid 2-(5-chloro-1H-indole-2-carbonyl)hydrazide] | 89 nM
2 | CN(C)C(=O)COc1ccccc1C(=O)NNC(=O)c1cc2cc(Cl)ccc2[nH]1 [Example 1-52, 2-(2-(5-chloro-1H-indole-2-carbonyl)hydrazinocarbonyl)phenoxy-N,N-dimethylacetamide] | 91 nM
3 | CNc1ccccc1C(=O)NNC(=O)c1cc2cc(Cl)ccc2[nH]1 [Example 1-53, 2-methylaminobenzoic acid 2-(5-chloro-1H-indole-2-carbonyl)hydrazide] | 230 nM
4 | Nc1cc(Cl)ccc1C(=O)NNC(=O)c1cc2cc(Cl)ccc2[nH]1 [Example 1-54, 2-amino-4-chlorobenzoic acid 2-(5-chloro-1H-indole-2-carbonyl)hydrazide] | 30 nM
5 | Nc1cccc(Cl)c1C(=O)NNC(=O)c1cc2cc(Cl)ccc2[nH]1 [Example 1-55, 2-amino-6-chlorobenzoic acid 2-(5-chloro-1H-indole-2-carbonyl)hydrazide] | 87 nM
6 | Nc1ccc(Cl)cc1C(=O)NNC(=O)c1cc2cc(Cl)ccc2[nH]1 [Example 1-57, 2-amino-5-chlorobenzoic acid 2-(5-chloro-1H-indole-2-carbonyl)hydrazide] | 30 nM
7 | N#Cc1ccc(C(=O)NNC(=O)c2cc3cc(Cl)ccc3[nH]2)cc1 [Example 1-58, 4-cyanobenzoic acid 2-(5-chloro-1H-indole-2-carbonyl)hydrazide] | > 100 nM
8 | CN(C)C(=O)Oc1ccccc1C(=O)NNC(=O)c1cc2cc(Cl)ccc2[nH]1 [Example 1-65, 2-(2-(5-chloro-1H-indole-2-carbonyl)hydrazinocarbonyl)phenyl dimethylcarbamate] | > 100 nM

The next lines start with the values.

Row | IC50 | Structure (SMILES)
9 | > 100 nM | O=C(NNC(=O)c1cc2cc(Cl)ccc2[nH]1)c1ccc(-c2nnn[nH]2)cc1 [Example 1-59, 4-(1H-tetrazol-5-yl)benzoic acid 2-(5-chloro-1H-indole-2-carbonyl)hydrazide]
10 | > 100 nM | O=C(NNC(=O)c1cc2cc(Cl)ccc2[nH]1)c1cccc(-c2nnn[nH]2)c1 [Example 1-60, 3-(1H-tetrazol-5-yl)benzoic acid 2-(5-chloro-1H-indole-2-carbonyl)hydrazide]
11 | 49 nM | O=C(O)CNc1ccccc1C(=O)NNC(=O)c1cc2cc(Cl)ccc2[nH]1 [Example 1-61, 2-(2-(2-(5-chloro-1H-indole-2-carbonyl)hydrazinocarbonyl)anilino)acetic acid]
12 | 88 nM | Cc1ccc2[nH]c(C(=O)NNC(=O)c3ccccc3N)cc2c1 [Example 1-62, 2-aminobenzoic acid 2-(5-methyl-1H-indole-2-carbonyl)hydrazide]
13 | 28 nM | Cc1ccc2[nH]c(C(=O)NNC(=O)c3ccc(F)cc3N)cc2c1 [Example 1-63, 2-amino-4-fluorobenzoic acid 2-(5-methyl-1H-indole-2-carbonyl)hydrazide]
14 | > 100 nM | COC(=O)Nc1ccccc1C(=O)NNC(=O)c1cc2cc(C)ccc2[nH]1 [Example 1-64, methyl (2-(2-(5-methyl-1H-indole-2-carbonyl)hydrazinocarbonyl)phenyl)carbamate]
15 | > 100 nM | CCc1ccc2[nH]c(C(=O)NNC(=O)c3ccccc3N)cc2c1 [Example 1-66, 2-aminobenzoic acid 2-(5-ethyl-1H-indole-2-carbonyl)hydrazide]
16 | 54 nM | Cc1ccc2[nH]c(C(=O)NNC(=O)c3cc(F)c(F)cc3N)cc2c1 [Example 1-67, 2-Amino-4,5-difluorobenzoic acid 2-(5-methyl-1H-indole-2-carbonyl)hydrazide]
17 | 160 nM | O=C(NNC(=O)c1ccccc1OCCO)c1cc2cc(Cl)ccc2[nH]1 [Example 1-68, 2-(2-hydroxyethoxy)benzoic acid 2-(5-chloro-1H-indole-2-carbonyl)hydrazide]
